Laboratory results reported in US20180092908A1, “SMALL MOLECULE OXIDIZERS OF PDI AND THEIR USE” (THE TRUSTEES OF COLUMBIA UNIVERSITY IN THE CITY OF NEW YORK, priority 2015, published 2018).
Values after ≈ are worked out from the molar mass of the structure shown. Where two headings read alike, the source gives them in different places.

Assays:
[1] = target: T1, recombinant catalytic a domain of human PDI A1 (PDIa) (Homo sapiens, UniProt P07237); assay: Insulin aggregation assay (PDIa reductase activity); format: biochemical; conditions: Table 5
T1 construct: made in house; host or cells: Escherichia coli BL21-Gold (DE3)
Text: In this insulin aggregation assay (Xu et al., 2012; Jasuja et al., 2012; Khan et al., 2011; Smith et al., 2004), PDIa reduced the two disulfide bonds between the α- and β-chains of insulin, causing the β-chain to aggregate and precipitate, resulting in an increase in absorbance at 650 nm.
To investigate the mode of binding further and to determine whether the binding was reversible or irreversible, the recovery of enzymatic activity of PDIa after dilution of pre-formed concentrated PDIa-LOC14 complexes was analyzed. LOC14 (750 μM) was incubated with a concentrated solution of PDIa (500 μM). The mixture was then diluted 100-fold and PDI's enzymatic activity was measured in the insulin reduction assay. As a control, the same procedure was also performed on the sample containing an irreversible inhibitor, 16F16 (16F16 at 750 μM and PDIa at 500 μM). […] This illustrated that unlike 16F16, LOC14 binding to PDIa is reversible.

physchem = conditions: organic solvent or mixture
[2] = target: T2, human catalytic PDI A1 a domain (PDIa) (Homo sapiens, UniProt P07237); assay: Isothermal titration calorimetry (ITC) binding to PDIa; conditions: PDIa
T2 construct: made in house; host or cells: Escherichia coli BL21-Gold (DE3)
Experimental: All ITC experiments were carried out at 25° C. on MicoCal Auto-ITC200 system (GE Healthcare). Reduced PDIa was dialyzed into ITC buffer (20 mM sodium phosphate buffer pH 7.8) and loaded into a sample cell at 40 μM concentration. The compound solution was loaded into a syringe at 400 μM in the same ITC buffer with a final DMSO concentration at 0.4% (v/v). ITC titration experiments were carried out at 25° C. with 19 injections, 2 μl per injection, and 180 seconds between each injection. The reference cell power was set to 5 μcal/sec. A control experiment was performed for each compound, where each compound was titrated into buffer to account for heat released due to dilution. This background was subtracted from test data before a final dissociation constant was obtained. Data were analyzed using a one-site binding model in Origin 7.1 software. […] Gibbs free energy, ΔG, was calculated from equation ΔG=ΔH−TΔS. All other parameters, Ka, n, ΔH, ΔS, were determined directly from the titration data.
For ITC experiments with 16F16 pre-treatment, 40 μM PDIa (after dialysis into ITC buffer) was treated with 200 μM 16F16 for 12-15 hours at 4° C. Next day the whole solution was loaded into the sample cell. LOC14 at 400 μM in ITC buffer was loaded into syringe and titrated into PDIa+16F16 loaded cell. For control experiments, ITC buffer with 200 μM 16F16 was used in the cell, while 400 μM LOC14 in ITC buffer was used in the syringe.
The binding mode of LOC14 to PDIa was next investigated using isothermal titration calorimetry (ITC). ITC measures the heat released or absorbed during a biomolecular interaction. It is a direct analytical method for determining the binding and thermodynamic parameters, such as reaction stoichiometry (n), binding constants (Ka and Kd), enthalpy (ΔH), entropy (ΔS), and free energy (ΔG) of an interaction.

PC12 mHTT^Q103 cells = assay: Rescue of PC12 cells from mHTT^Q103 induced cell death (Alamar blue viability); format: cell-based; conditions: Rattus norvegicus, PC-12; Table 5; read-out: Cell Viability Assay EC50
Text: PC12 mHTT^Q103 cells were a gift from Erik S. Schweitzer (UCLA School of Medicine, Los Angeles, Calif.). These cells are stably transfected with the first exon of human HTT gene containing the pathogenic 103 CAG/CAA repeat expansion, under the control of the ecdysteroid promoter (Aiken et al., 2004). The plasmid also contains a Bombyx mori ecdysone receptor gene fused at N-terminal with VP16 transactivation domain (Suhr et al., 1998; Vilaboa et al., 2011). Addition of the ecdysone analog, tebufenozide, to the cell culture medium is used to initiate the transcription of mutant HTT (Aiken et al., 2004).
PC12 mHTT^Q103 cells were cultured in DMEM containing 4.5 g/I glucose, 25 mM HEPES, sodium pyruvate, and no L-glutamine (Mediatech, cat. no. 15-018-CV), supplemented with 10% (v/v) Cosmic Calf serum, 2 mM L-glutamine, 100 units/mL of penicillin-streptomycin, and 0.5 mg/ml active geneticin. Cells were grown at 37° C., 9.5% CO2, and the medium was replaced with fresh medium every 2-3 days. To induce mHTT^Q103 expression for experiments, tebufenozide, a gift from Lynne Moore and Fred H. Gage (The Salk Institute for Biological Studies, La Jolla, Calif.), was added to the medium at 200 nM final concentration from 1 mM stock in 85% ethanol.
LOC mother plates with compounds at 4 mg/ml were thawed and spun down (1000 rpm, 20° C., 1 min) prior to use. Biomek FX (Beckman Coulter) robotic liquid dispenser was used to handle all liquid transferring and mixing. […] Two fold serial dilution was performed across five daughter plates by transferring 50 μl of compounds (at […]) from the D1 plate into 50 μl of PC12 medium in daughter plate D2, mixing, and then repeating the process for the remaining three plates. Daughter plate D1 with compounds at […], daughter plate D3 with compounds at 20 μl/ml and daughter plate D5 with compounds at 5 μl/ml were then used for the screen. Assay plates were set up by seeding tebufenozide-induced PC12 mHTT^Q103 cells into 384-well black, clear-bottom plates (Corning Inc. cat. no. 3712) at a density of 7,500 cells per well in 57 μl PC12 medium without geneticin. Three microliters of compound from the daughter plates (D1, D3, and D5) were added to the assay plates for a final compound concentration of 4 μl/ml, 1 μl/ml, and 0.25 μl/ml. Four wells containing uninduced PC12 mHTT^Q103 cells and four wells containing medium only, were also included on each plate as controls. The assay plates were incubated at 37° C., 9.5% CO2 for 48 hours. Twenty microliters of 40% Alamar blue (Life Technologies cat. no. DAL1100) solution in PC12 medium was added to each well (1:10 final dilution) and the plates were incubated for an additional 12-24 hours at 37° C., 9.5% CO2. Alamar blue fluorescence was read on a fluorescence plate reader (PerkinElmer Victor3) with 530 nm excitation filter and 590 nm emission filter. Each compound concentration was tested in triplicate.
The follow-up testing of primary screen hits was performed in a similar way. Fresh powder stocks of primary hits were re-ordered from vendors, dissolved in DMSO and tested in a two-fold serial dilution across 10 wells in both tebufenozide-induced and uninduced PC12 mHTT^Q103 cells. Dose-response curves were plotted as mean±SD and fit to either four-parameter sigmoidal (for uninduced cells) or bell-shaped (induced) function using Prism (GraphPad Software).
A cascade of two assays was used, involving both a phenotypic high-throughput screening (HTS) assay and an in vitro PDI reductase assay, to identify neuroprotective PDI-inhibiting compounds. […] Alamar blue was used as a fluorescent readout for viability after 48 hours of compound treatment and mHTT^Q103 induction. […] All the candidate hit compounds were re-tested in a two-fold dilution series.

Solubility = conditions: DMSO, Table 5
[3] = Table 5, read-out: ITC Assay KD

T1 sequence (P07237 with tags, fused parts or gaps): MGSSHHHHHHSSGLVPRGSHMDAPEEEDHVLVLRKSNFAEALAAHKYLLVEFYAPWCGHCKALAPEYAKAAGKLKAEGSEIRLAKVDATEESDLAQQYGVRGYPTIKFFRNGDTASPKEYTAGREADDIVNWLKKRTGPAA
T2 sequence (P07237 with tags, fused parts or gaps): as above

| Compound | Insulin Assay (either active or inactive) [1] | ITC Assay KD ([2]; Table 5) | solubility (physchem; DMSO) | Kd ([2]; Table 4, read-out: ITC KD) | Kd [2, 3] | Solubility in DMSO (Solubility) | ITC KD ([2]; Table 4) | solubility (physchem) | EC50 (PC12 mHTT^Q103 cells) |
| --- | --- | --- | --- | --- | --- | --- | --- | --- | --- |
| O=C(Nc1ccccc1)c1ccccc1S [LC-19] | not active | KD = N/A irreversible or not active |  |  |  |  |  | 50 mM (≈ 11500 µg/mL) |  |
| CC(C)(C)OC(=O)N1CCC(COc2nsc3ccccc23)CC1 [LC-16] | not active | KD = N/A irreversible or not active | 50 mM (≈ 17400 µg/mL) |  |  |  |  |  | > 50 µM |
| CN1CCN(Cn2sc3ccccc3c2=O)CC1 [LC-2] | Active |  |  | 0.134 µM | 0.0917 µM | 100 mM in DMSO |  |  | 0.415 µM |
| O=c1c2ccccc2sn1CN1CCC(O)CC1 [LC-7] | Active |  |  | 0.216 µM | 0.216 µM | 100 mM in DMSO |  |  | 0.441 µM |
| CC(C)(C)OC(=O)N1CCN(Cn2sc3ccccc3c2=O)CC1 [LC-10] | Active |  |  | 0.123 µM | 0.123 µM | 100 mM in DMSO |  |  | 0.581 µM |
| O=c1c2ccccc2sn1CN1CCCCC1 [LC-1] | Active |  |  | 0.107 µM | 0.107 µM | 100 mM in DMSO |  |  | 0.459 µM |
| O=c1c2ccccc2sn1CN1CCC(CO)CC1 [LC-4] | Active |  |  | 0.265 µM | 0.265 µM | 100 mM in DMSO |  |  | 0.343 µM |
| Cc1cc(C)c2c(=O)ssc2n1 [LC-50] | Active |  |  |  |  | 100 mM in DMSO |  |  | 5.18 µM |
| O=c1c2ccccc2sn1Cn1sc2ccccc2c1=O [LC-17, 2,2′-methylenebis(benzo[d]isothiazol-3(2H)-one)] | Active |  |  |  | 0.16 µM | 100 mM in DMSO |  |  | 0.229 µM |
| O=c1c2ccccc2sn1-c1ccc(N2CCOCC2)cc1 [LC-27] | not active | KD = N/A irreversible or not active | 30 mM (≈ 9370 µg/mL) |  |  |  |  |  | 1.83 µM |
| O=C(Nc1ccccc1)n1sc2ccccc2c1=O [LC-6, 3-oxo-N-phenylbenzo[d]isothiazole-2(3H)-carboxamide] | not active | KD = N/A irreversible or not active | 50 mM (≈ 13500 µg/mL) |  |  |  | KD = not active |  | 0.476 µM |
| O=c1[nH]sc2c(F)cccc12 [LC-40] | Active | KD = N/A irreversible or not active |  |  |  |  |  |  | 9.33 µM |
| O=C(c1ccccc1)n1sc2ccccc2c1=O [LC-11] | not active | KD = N/A irreversible or not |  |  |  |  |  |  | > 50 µM |
| O=c1c2ccccc2sn1CN1CCSCC1 [LC-3] | Active |  |  | 0.0917 µM | 0.0917 µM | 100 mM in DMSO |  |  | 0.463 µM |
| O=c1[nH]sc2ncccc12 [LC-47] | not active | KD = N/A irreversible or not active | 50 mM (≈ 7610 µg/mL) |  |  |  |  |  | > 50 µM |

More lines, main results first:

| Insulin Assay (either active or inactive) [1] | ITC Assay KD ([2]; Table 5) | solubility (physchem; DMSO) | Kd ([2]; Table 4, read-out: ITC KD) | Kd [2, 3] | Solubility in DMSO (Solubility) | ITC KD ([2]; Table 4) | Compound | solubility (physchem) | EC50 (PC12 mHTT^Q103 cells) |
| --- | --- | --- | --- | --- | --- | --- | --- | --- | --- |
| Active |  | 20 mM (≈ 7040 µg/mL) | 0.114 µM | 0.114 µM |  |  | O=C(C1CC1)N1CCN(Cn2sc3ccc(Cl)cc3c2=O)CC1 [LC-15, 5-chloro-2-((4-(cyclopropanecarbonyl)piperazin-1-yl)methyl)benzo[d]isothiazol-3(2H)-one] |  | 0.467 µM |
| not active | KD = N/A irreversible or not active | 30 mM (≈ 9940 µg/mL) |  |  |  |  | O=C(C1CC1)N1CCN(C(=O)n2sc3ccccc3c2=O)CC1 [LC-14] |  | > 50 µM |
| Active |  |  |  |  | 100 mM in DMSO |  | Cc1nnc2sn(C(C)N3CCC(C(=O)C4CC4)CC3)c(=O)c2c1C (stereo not shown) [LC-59] |  | 10.6 µM |
| Active |  |  | 0.19 µM | 0.19 µM | 100 mM in DMSO |  | CC(=O)c1ccc(N2CCN(Cn3sc4ccccc4c3=O)CC2)cc1 [LC-13] |  | 0.514 µM |
| Active |  | 10 mM (≈ 1940 µg/mL) |  |  |  |  | Cc1nc2s[nH]c(=O)c2c(C)c1C [LC-51] |  | 2.2 µM |
| Active |  |  | 0.14 µM | 0.14 µM | 100 mM in DMSO |  | O=c1c2ccccc2sn1CN1CCN(c2ncccn2)CC1 [LC-12] |  | 0.416 µM |
| Active |  | 25 mM (≈ 8660 µg/mL) |  |  |  |  | Cc1cc(C)c2c(=O)n(CN3CCN(C(=O)C4CC4)CC3)sc2n1 [LC-53] |  | 4.2 µM |
| Active |  | 10 mM (≈ 3600 µg/mL) |  |  |  |  | Cc1nc2sn(CN3CCN(C(=O)C4CC4)CC3)c(=O)c2c(C)c1C [LC-52] |  | 3.57 µM |
